{"source": "patent US10898548B2", "about": "“Modulators of protein tyrosine phosphatase and uses thereof” (LEUVAS THERAPEUTICS, priority 2015, dated 2021)", "key": {"[1]": {"molecular_target": "T1, JAK2 (Homo sapiens, UniProt O60674)", "T1 construct": "endogenous in cells; host or cells: human primary monocytes", "T1 sequence (O60674 whole entry)": "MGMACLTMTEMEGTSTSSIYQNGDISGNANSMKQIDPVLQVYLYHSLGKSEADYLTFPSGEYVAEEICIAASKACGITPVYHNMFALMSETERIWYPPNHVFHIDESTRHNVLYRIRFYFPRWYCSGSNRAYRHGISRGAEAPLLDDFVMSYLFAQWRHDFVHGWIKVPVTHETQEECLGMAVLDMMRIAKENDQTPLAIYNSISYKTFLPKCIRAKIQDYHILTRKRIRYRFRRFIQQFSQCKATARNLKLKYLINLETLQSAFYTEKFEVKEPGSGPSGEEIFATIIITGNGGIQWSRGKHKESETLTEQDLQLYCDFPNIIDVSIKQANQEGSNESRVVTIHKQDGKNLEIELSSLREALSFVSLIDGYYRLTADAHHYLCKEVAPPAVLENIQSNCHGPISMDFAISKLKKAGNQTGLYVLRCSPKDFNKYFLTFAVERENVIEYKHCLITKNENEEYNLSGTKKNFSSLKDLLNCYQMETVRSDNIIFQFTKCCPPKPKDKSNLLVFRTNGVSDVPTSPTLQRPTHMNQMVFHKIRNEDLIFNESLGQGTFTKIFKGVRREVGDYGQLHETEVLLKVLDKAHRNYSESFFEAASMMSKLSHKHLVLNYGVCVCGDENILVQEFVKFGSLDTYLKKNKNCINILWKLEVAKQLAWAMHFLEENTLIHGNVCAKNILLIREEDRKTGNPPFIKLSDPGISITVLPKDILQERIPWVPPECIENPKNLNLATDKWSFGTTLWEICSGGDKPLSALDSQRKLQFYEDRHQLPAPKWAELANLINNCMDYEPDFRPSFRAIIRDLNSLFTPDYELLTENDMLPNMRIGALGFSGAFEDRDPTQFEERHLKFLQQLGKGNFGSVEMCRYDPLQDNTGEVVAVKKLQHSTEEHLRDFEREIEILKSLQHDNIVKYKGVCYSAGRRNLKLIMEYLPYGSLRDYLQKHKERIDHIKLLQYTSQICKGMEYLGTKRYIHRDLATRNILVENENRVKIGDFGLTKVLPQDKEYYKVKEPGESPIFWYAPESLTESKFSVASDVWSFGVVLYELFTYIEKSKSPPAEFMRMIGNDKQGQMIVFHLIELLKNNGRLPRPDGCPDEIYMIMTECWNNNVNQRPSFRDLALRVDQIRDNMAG", "experiment": "phospho-JAK2 Western Blot on monocytes", "assay_type": "cell-based", "settings": "50 nM fMLP 180 sec", "source_text": "(§1) JAK2 regulation by PTPRG as assessed through the high-throughput phospho-proteomics analysis evidenced that PTPRG activation (Example 4, Table 9 and 10) provides a useful example of the exploitation of this analysis system for identification of targets and unexpected indications/uses for known and novel agents that regulate the phoshoproteome. […] Furthermore, the capability of fMLP to trigger JAKs activation has never been observed. The results described in Example 4 unexpectedly implicate JAK2 de-phosphorylation by PTPRG as playing a role in the anti-adhesive role of PTPRG on monocytes. To test this system-generated hypothesis we first set out to define the role of JAK2 in fMLP-triggered rapid adhesion in monocytes. Time course experiments, either performed with ELISA assay or Western Blot. Briefly, purified human monocytes were treated with buffer (resting) or with 50 nM fMLP for the indicated times (Table 12), and the phosphorylation was assessed by p-Jak2 elisa and Western Blot analysis. The JAK2 activation was determined with Elisa Kit JAK2 (pYpY1007/1008) (Invitrogen). Briefly, cells were stimulated with agonist and lysed following manufacturer's protocol; levels of phospho-JAK2 were quantified (absorbance at 450 nm) with a micro-well plate reader (Victor™ X5 Multilabel Plate Reader, Perkin Elmer). For Western blot analysis, cells were lysed in ice-cold 1% Nonidet P-40 buffer, containing phosphatase inhibitors and complete protease inhibitor cocktail (Roche). Total cell lysates were quantified by Bradford assay (Bio-Rad). Equal amounts of total lysates or of isolated membranes (as described in Example 1) were subjected to 10% SDS-PAGE and then blotted. After incubation with anti-PTPRG, anti gp91^Phox, anti phospho-JAK2, anti JAK2 and HRP-linked secondary antibodies (GE Healthcare), immunoreactive bands were visualized by ECL detection (EMD Millipore). Intensities of band signals were quantified by densitometric analysis (Quantity One, Bio-Rad) by using ImageQuant Las4000. Data are mean value of three experiments; the relative ratio of the band intensity of phosphor-JAK2 was normalized to the level of JAK2 band intensities.\nTo evaluate whether JAK2 mediates fMLP-triggered rapid adhesion in human monocytes, we tested the capability of three JAK inhibitors, AG490, WHI-P154 and P1-TKIP peptide, to block adhesion triggering. Briefly, Monocytes were treated with buffer (resting and Control=CTRL), 100 μM AG490, 40 μM P1 or P1-TKIP peptides, or 200 μM WHI-P154 for 1 hour at 37° C. and stimulated with 50 nM fMLP for 180 sec. Cell lysates were probed with anti phospho-JAK2 and with anti JAK2. Western Blot immuoreactive band quantification; the relative ratio of the band intensity of phospho-JAK2 was normalized to the level of JAK2 band intensities; mean values of three experiments (Table 13).\nThe impact of TAT-ICD and P1-WD on JAK2 activation by chemoattractants was also evaluated by Western Blot analysis. Briefly, monocytes were treated with buffer (Resting, CTRL), 0.5 uM TAT-ICD, 50 μM TAT peptide, 50 μM P1-WD, P1 or P1-WD scrambled peptides for 1 hour at 37° C. and stimulated with 50 nM fMLP for 180 sec (the resting cells were not stimulated with fMLP). Total lysates were probed with anti phospho-JAK2 or with anti JAK. Western Blot immunoreactive bands were quantified and the relative ratio of the band intensity of phospho-JAK2 was normalized to the level of JAK2 band intensities; data are mean value and standard deviation of three experiments (Table 19)."}, "[2]": {"test_system": "JAK2 (pYpY1007/1008)", "experiment": "p-JAK2 ELISA on monocytes", "assay_type": "cell-based, human", "settings": "1 hour, 50 nM fMLP 90 sec, CTRL 100", "source_text": "as §1\nBriefly, p-JAK2 ELISA assay on human monocytes treated with buffer (CTRL=control), 50 μM P1-WD, P1 or P1-WD scrambled peptides (Table 17), or with buffer (CTRL=control), 0.5 uM TAT-ICD or 50 μM TAT peptide (Table 18) for 1 hour at 37° C. and stimulated with 50 nM fMLP for 90 sec. Shown are percentages of fold increases over the control; mean values of 3 experiments in triplicate."}, "[3]": {"test_system": "U251 GBM cells", "experiment": "MTT survival assay, U251 GBM cells", "assay_type": "cell-based", "description": "Briefly, U251 GBM cells, normal primary cortical murine neurons and a mixed culture of murine microglia and astrocytes were treated for 24, 48 and 72 hours with no treatment (control), delivery peptide (P1 or TAT) or increasing concentrations of P1-WD or TAT-ICD. Cell viability and survival was measured using the MTT assay, a colorimetric assay for assessing cell metabolic activity set up under conditions where the absorption reflects the number of viable cells present (Table 21 and 22) and expressed as relative absorption at 570 nm. Early apoptosis was measured using VYBRANT DyeCycle Violet stain (Molecular Probes), a DNA-selective, cell membrane-permeant dye that can distinguish the compacted state of the nuclear chromatin in apoptotic cells as determined by flow cytometry and presented as the percent of cells that are apoptotic (Table 23 and 24). The actual number of cells following treatment with TAT-ICD or TAT alone (Table 25) was determined using flow cytometry compared to an input of 5,000 cells at time zero. To confirm apoptosis the TUNEL labeling assay, which detects DNA strand breaks in apoptotic cells by fluorescence microscopy, was also used to examine U251 cells treated with the PTPRG WD. Briefly, the assay used an optimized terminal transferase ([…]) to label 3′OH ends in genomic DNA with TMR-dUTP, thus allowing the measurement and quantification of cell death by apoptosis. U251 cells were pretreated for 1, 3 and 6 hours with 50 μM P1-WD. Then cells were fixed and permeabilized, incubated with TUNEL reaction mixture for 1 h at RT, and then stained with DAPI (for nuclei detection) and with Alexa670-Phalloidin (to detect actin in cell membranes). After the staining steps, cells were visualized with a confocal microscope."}, "[4]": {"settings": "100 μM AG490, 40 μM P1 or P1-TKIP, 200 μM WHI-P154, 1 hour, CTRL 207.7, Resting 18.8"}, "[5]": {"settings": "50 μM P1-WD, P1 or P1-WD scrambled"}, "[6]": {"settings": "0.5 uM TAT-ICD, 50 μM TAT, 50 μM P1-WD, P1 or P1-WD scrambled, 1 hour, CTRL 50, Resting 8"}, "[7]": {"settings": "P1 or P1-WD 50 uM, 24 hours, control 821"}, "[8]": {"settings": "P1 or P1-WD 50 uM, 48 hours, control 1943"}, "[9]": {"settings": "P1 or P1-WD 50 uM, 72 hours, control 2556"}, "[10]": {"settings": "0.5 uM TAT-ICD or 50 μM TAT peptide"}}, "note": "Marks after values point to notes of the source that are not given here.", "data": [{"compound": "N#C/C(=C/c1ccc(O)c(O)c1)C(=O)NCc1ccccc1", "note": "[AG490]", "values": [{"measurement": "phospho-JAK2 band intensity normalized to JAK2, Western Blot", "setting": "[1]; [4]", "result": 9.2}]}, {"compound": "COc1cc2ncnc(Nc3ccc(O)c(Br)c3)c2cc1OC", "note": "[WHI-P154]", "values": [{"measurement": "phospho-JAK2 band intensity normalized to JAK2, Western Blot", "setting": "[1]; [4]", "result": 4.9}]}, {"compound": "P1-WD: fusion Trojan peptide SEQ ID 3: Penetratin, glycine, PTPRG wedge domain aa 831-856; RQIKIWFQNRRMKWKKGKQFVKHIGELYSNNQHGFSEDFEEVQ (listed as Homo sapiens)", "values": [{"measurement": "p-JAK2 ELISA, percentages of fold increases over the control", "setting": "[2]; [5]", "result": 51, "unit": "%"}, {"measurement": "phospho-JAK2 band intensity normalized to JAK2, Western Blot", "setting": "[1]; [6]", "result": "12*"}, {"measurement": "MTT relative absorption at 570 nM", "setting": "[3]; P1-WD 10 uM, 24 hours, control 821", "result": 656}, {"measurement": "MTT relative absorption at 570 nM", "setting": "[3]; P1-WD 10 uM, 48 hours, control 1943", "result": 1400}, {"measurement": "MTT relative absorption at 570 nM", "setting": "[3]; P1-WD 10 uM, 72 hours, control 2556", "result": 1593}, {"measurement": "MTT relative absorption at 570 nM", "setting": "[3]; P1-WD 25 uM, 24 hours, control 821", "result": 469}, {"measurement": "MTT relative absorption at 570 nM", "setting": "[3]; P1-WD 25 uM, 48 hours, control 1943", "result": 820}, {"measurement": "MTT relative absorption at 570 nM", "setting": "[3]; P1-WD 25 uM, 72 hours, control 2556", "result": 1281}, {"measurement": "MTT relative absorption at 570 nM", "setting": "[3]; [7]", "result": 411}, {"measurement": "MTT relative absorption at 570 nM", "setting": "[3]; [8]", "result": 733}, {"measurement": "MTT relative absorption at 570 nM", "setting": "[3]; [9]", "result": 1060}]}, {"compound": "P1: Penetratin delivery peptide, 16 aa RQIKIWFQNRRMKWKK (SEQ ID 4), control [reference compound]", "values": [{"measurement": "p-JAK2 ELISA, percentages of fold increases over the control", "setting": "[2]; [5]", "result": 95, "unit": "%"}, {"measurement": "phospho-JAK2 band intensity normalized to JAK2, Western Blot", "setting": "[1]; [6]", "result": 49}, {"measurement": "phospho-JAK2 band intensity normalized to JAK2, Western Blot", "setting": "[1]; [4]", "result": 111.4}, {"measurement": "MTT relative absorption at 570 nM", "setting": "[3]; [7]", "result": 600}, {"measurement": "MTT relative absorption at 570 nM", "setting": "[3]; [8]", "result": 1743}, {"measurement": "MTT relative absorption at 570 nM", "setting": "[3]; [9]", "result": 2294}]}, {"compound": "TAT (GRKKRRQRRRPPQ; listed as Homo sapiens) [reference compound]", "values": [{"measurement": "p-JAK2 ELISA, percentages of fold increases over the control", "setting": "[2]; [10]", "result": 99, "unit": "%"}, {"measurement": "phospho-JAK2 band intensity normalized to JAK2, Western Blot", "setting": "[1]; [6]", "result": 40}, {"measurement": "MTT relative absorption at 570 nM", "setting": "[3]; TAT 50 uM, 24 hrs, Control 821", "result": 825}, {"measurement": "MTT relative absorption at 570 nM", "setting": "[3]; TAT 50 uM, 48 hrs, Control 1943", "result": 1654}, {"measurement": "MTT relative absorption at 570 nM", "setting": "[3]; TAT 50 uM, 72 hrs, Control 2556", "result": 2068}]}, {"compound": "TAT-ICD: fusion recombinant protein SEQ ID 5: PTPRG intracellular domain aa 797-1445 fused to 13 aa TAT sequence", "values": [{"measurement": "p-JAK2 ELISA, percentages of fold increases over the control", "setting": "[2]; [10]", "result": 53, "unit": "%"}, {"measurement": "phospho-JAK2 band intensity normalized to JAK2, Western Blot", "setting": "[1]; [6]", "result": "15*"}, {"measurement": "MTT relative absorption at 570 nM", "setting": "[3]; TAT-ICD 0.5 uM, 24 hrs, Control 821", "result": 568}, {"measurement": "MTT relative absorption at 570 nM", "setting": "[3]; TAT-ICD 0.5 uM, 48 hrs, Control 1943", "result": 969}, {"measurement": "MTT relative absorption at 570 nM", "setting": "[3]; TAT-ICD 0.5 uM, 72 hrs, Control 2556", "result": 1630}, {"measurement": "MTT relative absorption at 570 nM", "setting": "[3]; TAT-ICD 1.0 uM, 24 hrs, Control 821", "result": 353}, {"measurement": "MTT relative absorption at 570 nM", "setting": "[3]; TAT-ICD 1.0 uM, 48 hrs, Control 1943", "result": 526}, {"measurement": "MTT relative absorption at 570 nM", "setting": "[3]; TAT-ICD 1.0 uM, 72 hrs, Control 2556", "result": 830}, {"measurement": "MTT relative absorption at 570 nM", "setting": "[3]; TAT-ICD 2.0 uM, 24 hrs, Control 821", "result": 244}, {"measurement": "MTT relative absorption at 570 nM", "setting": "[3]; TAT-ICD 2.0 uM, 48 hrs, Control 1943", "result": 236}, {"measurement": "MTT relative absorption at 570 nM", "setting": "[3]; TAT-ICD 2.0 uM, 72 hrs, Control 2556", "result": 279}]}]}
